{"source": "patent US8956878B2", "about": "“Polypeptides with affinity for heat shock proteins (HSPS) and HSP associated complexes (HACS) and their use in diagnosis and therapy” (Atlantic Cancer Research Institute, priority 2011, dated 2015)", "key": {"[1]": {"test_system": "HACs from sub-cellular extracts", "assay": "Fractionation of HACs from sub-cellular extracts", "settings": "as second peptide portion of the polypeptide", "source_text": "(§1) In another embodiment, the at least one second peptide portion contributes to the selectivity of the affinity of the polypeptide."}, "[2]": {"test_system": "vesicular material from culture medium or biological fluid", "assay": "Fractionation of vesicular material", "settings": "as second peptide portion of the polypeptide", "source_text": "as §1"}, "[3]": {"test_system": "recombinant A. davidanieli HSP70 (adHSP70)", "assay_type": "binding, Arthrobacter davidanieli", "settings": "for CHIEF complex formation with adHSP70: substance as counter migrant to adHSP70"}, "human HSP70": {"biological_target": "human HSP70 (Homo sapiens, UniProt P0DMV8)", "sequence (P0DMV8 whole entry)": "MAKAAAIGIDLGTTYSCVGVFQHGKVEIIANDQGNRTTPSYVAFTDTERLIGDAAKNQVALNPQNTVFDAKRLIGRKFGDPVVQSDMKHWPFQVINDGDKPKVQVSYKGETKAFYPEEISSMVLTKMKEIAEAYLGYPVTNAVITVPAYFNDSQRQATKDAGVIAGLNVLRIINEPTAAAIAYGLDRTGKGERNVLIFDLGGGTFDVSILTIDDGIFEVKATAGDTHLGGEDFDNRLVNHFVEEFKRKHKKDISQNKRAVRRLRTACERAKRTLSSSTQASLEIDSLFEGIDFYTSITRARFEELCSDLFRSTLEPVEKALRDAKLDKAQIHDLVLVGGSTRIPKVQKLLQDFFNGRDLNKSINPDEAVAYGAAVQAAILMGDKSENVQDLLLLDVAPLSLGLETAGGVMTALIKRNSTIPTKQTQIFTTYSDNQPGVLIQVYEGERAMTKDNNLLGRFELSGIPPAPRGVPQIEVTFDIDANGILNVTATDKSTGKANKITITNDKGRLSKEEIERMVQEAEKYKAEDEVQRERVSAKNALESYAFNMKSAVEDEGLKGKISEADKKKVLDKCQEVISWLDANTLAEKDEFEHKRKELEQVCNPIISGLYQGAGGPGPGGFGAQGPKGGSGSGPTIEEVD", "assay": "CHIEF against recombinant human HSP70", "assay_type": "binding", "settings": "1 μg HSP70, 15 μg peptide"}, "rat HSP70": {"biological_target": "rat HSP70 (Rattus norvegicus, UniProt P0DMW0)", "sequence (P0DMW0 whole entry)": "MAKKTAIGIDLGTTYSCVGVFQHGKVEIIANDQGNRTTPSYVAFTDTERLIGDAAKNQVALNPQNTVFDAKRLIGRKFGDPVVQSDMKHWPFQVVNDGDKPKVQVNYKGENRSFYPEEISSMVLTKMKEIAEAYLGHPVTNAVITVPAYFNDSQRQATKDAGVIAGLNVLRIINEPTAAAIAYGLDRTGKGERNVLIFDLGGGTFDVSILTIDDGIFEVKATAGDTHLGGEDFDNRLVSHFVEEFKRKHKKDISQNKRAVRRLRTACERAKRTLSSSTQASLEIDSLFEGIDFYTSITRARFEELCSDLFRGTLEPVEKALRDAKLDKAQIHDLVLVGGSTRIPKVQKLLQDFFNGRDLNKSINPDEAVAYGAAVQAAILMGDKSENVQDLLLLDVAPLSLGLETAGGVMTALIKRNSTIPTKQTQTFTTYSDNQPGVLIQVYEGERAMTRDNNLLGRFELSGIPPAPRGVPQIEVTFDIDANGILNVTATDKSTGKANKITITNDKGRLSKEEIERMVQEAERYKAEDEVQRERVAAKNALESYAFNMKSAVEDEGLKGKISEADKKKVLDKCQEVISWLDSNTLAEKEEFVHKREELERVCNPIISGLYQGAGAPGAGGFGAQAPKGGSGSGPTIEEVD", "assay": "CHIEF against recombinant rat HSP70", "assay_type": "binding", "settings": "1 μg HSP70, 15 μg peptide"}, "[4]": {"biological_target": "cytoplasmic recombinant human HSP90 (Homo sapiens, UniProt P07900)", "assay": "CHIEF against recombinant human HSP90", "assay_type": "binding", "settings": "IEF gel, counter migrant"}, "[5]": {"biological_target": "glycoprotein 96 (gp96; canine) (Canis lupus familiaris, UniProt P41148)", "sequence (P41148 22-804)": "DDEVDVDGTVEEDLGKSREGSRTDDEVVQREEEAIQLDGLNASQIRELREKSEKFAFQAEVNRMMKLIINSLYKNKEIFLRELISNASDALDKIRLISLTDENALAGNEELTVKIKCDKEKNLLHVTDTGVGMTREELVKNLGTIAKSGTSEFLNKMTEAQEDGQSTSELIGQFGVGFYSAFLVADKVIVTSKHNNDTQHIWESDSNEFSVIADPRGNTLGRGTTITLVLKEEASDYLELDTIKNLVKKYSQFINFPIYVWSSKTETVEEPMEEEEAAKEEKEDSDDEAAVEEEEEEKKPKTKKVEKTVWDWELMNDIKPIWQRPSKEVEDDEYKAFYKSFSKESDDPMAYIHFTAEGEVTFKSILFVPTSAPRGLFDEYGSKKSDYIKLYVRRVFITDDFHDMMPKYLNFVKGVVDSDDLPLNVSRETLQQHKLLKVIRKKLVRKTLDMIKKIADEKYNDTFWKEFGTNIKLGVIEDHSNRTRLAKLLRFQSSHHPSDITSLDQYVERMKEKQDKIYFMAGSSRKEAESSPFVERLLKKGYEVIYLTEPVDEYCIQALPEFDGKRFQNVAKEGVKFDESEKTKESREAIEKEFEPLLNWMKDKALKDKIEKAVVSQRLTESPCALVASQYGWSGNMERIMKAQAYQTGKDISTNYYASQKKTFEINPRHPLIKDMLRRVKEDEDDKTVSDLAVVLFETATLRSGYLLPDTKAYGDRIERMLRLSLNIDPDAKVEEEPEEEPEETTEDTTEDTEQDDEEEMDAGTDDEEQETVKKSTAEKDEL", "assay": "CHIEF against gp96 (ER isoform of HSP90)", "assay_type": "binding", "settings": "IEF gel, counter migrant"}, "[6]": {"test_system": "Nalm-6 cytoplasmic and membrane associated proteins", "assay": "CHIEF against subcellular fractions of Nalm-6 leukemia cells", "assay_type": "binding", "source_text": "Abbreviations: φ=No peptide added at anode; MBPWT1, MBP100-117_WT1 117-134; MBP, MBP100-117; WT1, WT1 117-134. […] The arrowheads in lanes 2, 6, 10 (top), 14 and 18 (top) indicate expected CHIEF complex focusing near the 6.8 pl marker. The arrowheads in lanes 10 (bottom) and 18 (bottom) indicate the appearance of a CHIEF complex focusing near the 7.4 pl marker. The arrowheads in lane 5 and 19 (top and bottom) indicate where there has been cross over of the MBP117-134WT1 peptide into an adjacent lane causing a drive-by or swipe CHIEF complex formation (lane 5, lane 19).\nThree identical lanes were prepared for the generation of CHIEF complexes between MBP100-117WT1 117-134 (80 μg) and 10 μg of Nalm-6 membrane associated proteins.\n(§2) The example investigates the possibility that the bMBPWT1 peptide binds HSPs directly from cell lysates in a similar manner to when single recombinant HSP was used as a counter ion. Cancer cells are addicted to the overexpression of HSPs to support growth under poor environmental conditions, to facilitate the function of otherwise unstable oncoproteins and the ablation of apoptosis. Most, if not all, cancer cells should provide a rich source of human HSPs to serve as complex forming counter migrants for the MBP peptide co-synthesised with WT1 and SW peptides. […]"}, "[7]": {"test_system": "MDA MB231 cytoplasmic and membrane associated proteins", "assay": "CHIEF against subcellular fractions of MDA MB231 breast cancer cells", "assay_type": "binding", "settings": "80 μg peptide, 10 μg subcellular fraction", "protocol": "Abbreviations: φ=No peptide added at anode; MBPWT1, MBP100-117_WT1 117-134; MBP, MBP100-117; WT1, WT1 117-134. All peptides applied at cathode at a concentration of 80 μg (sic); subcellular fractions applied at cathode at a concentration of 10 μg. The arrowheads in lanes 2, 6, 10 (top), 14 and 18 (top) indicate expected CHIEF complex focusing near the 6.8 pl marker. The arrowheads in lanes 10 (bottom) and 18 (bottom) indicate the appearance of a CHIEF complex focusing near the 7.4 pl marker. The arrowheads in lane 5 and 19 (top and bottom) indicate where there has been cross over of the MBP117-134WT1 peptide into an adjacent lane causing a drive-by or swipe CHIEF complex formation (lane 5, lane 19).\nas §2"}, "[8]": {"test_system": "SKBR3 cytoplasmic proteins", "assay": "CHIEF against SKBR3 cytoplasmic proteins", "assay_type": "binding", "settings": "7 μg protein per lane", "protocol": "MBPWT1 peptide was tested as a counter ion to proteins from breast cancer cell line SKBR3. MBP co-synthesised with survivin peptides were also used as alternative sources of counter ions (FIG. 10).\nThe increased degree of complex formation observed in FIG. 10 prompted a closer evaluation of MBP co-synthesized with the three chosen survivin peptides 20-28, isoform 3 88-96 and 96-104."}, "[9]": {"biological_target": "T1, Recombinant Mycobacterium tuberculosis HSP70 (Mycobacterium tuberculosis, UniProt P9WMJ9)", "T1 construct": "purchased Aalto, Eire", "T1 sequence (P9WMJ9 whole entry)": "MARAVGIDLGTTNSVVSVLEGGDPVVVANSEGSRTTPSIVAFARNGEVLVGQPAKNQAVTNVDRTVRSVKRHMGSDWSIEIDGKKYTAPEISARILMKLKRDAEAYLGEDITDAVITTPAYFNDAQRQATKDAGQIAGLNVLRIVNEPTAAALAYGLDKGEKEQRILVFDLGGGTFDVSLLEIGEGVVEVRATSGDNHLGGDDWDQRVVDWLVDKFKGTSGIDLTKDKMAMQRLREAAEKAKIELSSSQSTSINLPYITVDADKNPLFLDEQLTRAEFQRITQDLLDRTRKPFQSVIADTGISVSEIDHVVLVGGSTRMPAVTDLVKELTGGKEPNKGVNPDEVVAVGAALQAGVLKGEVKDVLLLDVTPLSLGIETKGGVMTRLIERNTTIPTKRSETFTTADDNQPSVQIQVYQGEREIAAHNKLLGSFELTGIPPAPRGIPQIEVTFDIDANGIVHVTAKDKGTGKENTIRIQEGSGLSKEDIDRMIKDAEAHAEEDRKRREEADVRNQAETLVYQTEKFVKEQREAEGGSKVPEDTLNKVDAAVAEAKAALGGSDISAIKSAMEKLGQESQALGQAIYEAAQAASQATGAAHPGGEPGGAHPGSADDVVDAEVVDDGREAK", "assay_type": "binding", "settings": "IEF gel, counter migrant"}, "Recombinant murine HSP70": {"biological_target": "Recombinant murine HSP70 (Mus musculus, UniProt Q61696)", "sequence (Q61696 whole entry)": "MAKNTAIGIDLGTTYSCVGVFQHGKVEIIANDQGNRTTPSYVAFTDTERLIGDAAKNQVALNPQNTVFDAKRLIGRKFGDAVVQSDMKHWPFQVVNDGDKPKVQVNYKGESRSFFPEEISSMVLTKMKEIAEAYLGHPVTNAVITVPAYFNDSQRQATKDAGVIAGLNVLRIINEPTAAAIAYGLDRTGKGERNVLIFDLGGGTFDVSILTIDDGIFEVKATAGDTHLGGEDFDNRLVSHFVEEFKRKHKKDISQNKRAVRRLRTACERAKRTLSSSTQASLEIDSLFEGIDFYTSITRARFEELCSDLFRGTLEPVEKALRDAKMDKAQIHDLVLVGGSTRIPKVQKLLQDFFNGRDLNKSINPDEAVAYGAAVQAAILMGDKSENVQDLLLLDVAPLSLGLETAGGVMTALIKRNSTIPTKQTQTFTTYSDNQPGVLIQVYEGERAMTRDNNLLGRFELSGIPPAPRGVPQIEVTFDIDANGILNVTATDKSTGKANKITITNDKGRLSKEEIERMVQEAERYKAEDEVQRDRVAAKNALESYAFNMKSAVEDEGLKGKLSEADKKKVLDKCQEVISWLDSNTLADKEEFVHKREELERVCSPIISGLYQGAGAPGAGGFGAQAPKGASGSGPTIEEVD", "assay": "CHIEF against recombinant murine HSP70", "assay_type": "binding", "settings": "40 μg peptide"}, "PC3 (prostate cancer)": {"test_system": "PC3 (prostate cancer)", "assay": "Peptide in extracellular medium of PC3 cells", "assay_type": "cell-based", "settings": "7-25 μg/mL in extracellular medium, within 24 hours", "protocol": "(§3) The alpha helix and flanking sequences may permit the peptides of the application to resist the protease rich medium of cancer cells, a trait shared by human tissue fluids (e.g. serum). […] Since all major cancer causing species rely upon scaffolding by HSPs for stability and function, the peptides may represent a source of direct therapeutic application.\n(§4) When the peptides of the present application were included in the extracellular medium of the cancer cell lines (at concentrations of 7-25 μg/mL) such as PC3 (prostate cancer) and MCF7 (breast cancer), there was an inhibition of the protein synthesis and cell lysis within 24 hours. […] Since all major cancer causing species rely upon scaffolding by HSPs for stability and function, the peptides may represent a source of direct therapeutic application."}, "MCF7 (breast cancer)": {"test_system": "MCF7 (breast cancer)", "assay": "Peptide in extracellular medium of MCF7 cells", "assay_type": "cell-based", "settings": "7-25 μg/mL in extracellular medium, within 24 hours", "protocol": "as §3, §4"}}, "note": "Read-outs that look alike come from different tables or passages of the source."}
{"molecule": "LRRKCAVPS (listed as Homo sapiens) [SEQ ID NO: 9]", "values": [{"measurement": "efficiency of fractionating HACs from sub-cellular extracts", "setting": "[1]", "result": "more efficiently fractionated"}]}
{"molecule": "LTLGEFLKL (listed as Homo sapiens) [SEQ ID NO: 8]", "values": [{"measurement": "efficiency of fractionating vesicular material", "setting": "[2]", "result": "more efficient"}]}
{"molecule": "MBP 62-78: candidate binding peptide, residues 62-78 of bovine myelin basic protein (ARTTHYGSLPQKAQGHR)", "values": [{"measurement": "CHIEF complex formation with adHSP70", "setting": "[3]; IEF gel", "result": "negligible binding"}]}
{"molecule": "MBPWT1: MBP peptide 100-117 co-synthesised with Wilms tumor protein 1 peptide 117-134 (PSQGKGRGLSLSRFSWGAPSQASSGQARMFPNAPYL)", "values": [{"measurement": "CHIEF complex formation with adHSP70", "setting": "[3]; IEF gel", "result": "appeared to augment the formation of the complex"}, {"measurement": "CHIEF complex formation with human HSP70", "setting": "human HSP70", "result": "Some evidence of counter migrant complex formation"}, {"measurement": "CHIEF complex formation with rat HSP70", "setting": "rat HSP70", "result": "Some evidence of counter migrant complex formation"}, {"measurement": "CHIEF complex formation with human HSP90", "setting": "[4]", "result": "produced complexes"}, {"measurement": "CHIEF complex formation with gp96", "setting": "[5]", "result": "produced complexes"}, {"measurement": "CHIEF complex formation with Nalm-6 cytoplasmic proteins", "setting": "[6]; 80 μg peptide, 10 μg subcellular fraction", "result": "yielded similar CHIEF complexes"}, {"measurement": "CHIEF complex formation with Nalm-6 proteins at lower peptide amount", "setting": "[6]; concentrations below 80 μg", "result": "occasionally produced only modest complexes"}, {"measurement": "CHIEF complex formation with MDA MB231 cytoplasmic proteins", "setting": "[7]", "result": "yielded similar CHIEF complexes"}, {"measurement": "CHIEF complex formation with SKBR3 proteins", "setting": "[8]", "result": "Small counter migrant complexes formed"}]}
{"molecule": "PSQGKGRGLSLSRFSWGA (listed as Bos taurus) [SEQ ID NO: 2]", "values": [{"measurement": "effect of high peptide concentration on complex formation with adHSP70", "setting": "[3]; 100 μg peptide, 2 μg adHSP70", "result": "appears to inhibit complex formation"}, {"measurement": "CHIEF complex formation with adHSP70", "setting": "[3]; IEF gel, listed as 100-117", "result": "produced counter ion complexes"}, {"measurement": "CHIEF complex formation with adHSP70", "setting": "[3]; IEF gel, listed as MBP 100-117", "result": "binding"}, {"measurement": "CHIEF complex formation with adHSP70", "setting": "[3]; IEF gel, listed as MBP peptide", "result": "far more limited complex formation"}, {"measurement": "CHIEF complex formation with M. tuberculosis HSP70", "setting": "[9]; listed as 100-117", "result": "produced counter ion complexes"}, {"measurement": "CHIEF complex formation with M. tuberculosis HSP70", "setting": "[9]; listed as MBP peptide", "result": "counter migrant complex formed"}, {"measurement": "CHIEF complex formation with murine HSP70", "setting": "Recombinant murine HSP70", "result": "complexed"}]}
{"molecule": "PSQGKGRGLSLSRFSWGALRRKCAVPS [SEQ ID NO: 66]", "values": [{"measurement": "CHIEF complex formation with SKBR3 proteins", "setting": "[8]", "result": "much larger band formed"}, {"measurement": "effect on protein synthesis and cell lysis, PC3", "setting": "PC3 (prostate cancer)", "result": "drastic inhibition of protein synthesis and cell lysis"}, {"measurement": "effect on protein synthesis and cell lysis, MCF7", "setting": "MCF7 (breast cancer)", "result": "drastic inhibition of protein synthesis and cell lysis"}]}
{"molecule": "WT1 117-134: Wilms tumor protein 1 peptide 117-134 (PSQASSGQARMFPNAPYL) [reference compound]", "values": [{"measurement": "CHIEF complex formation with adHSP70", "setting": "[3]; IEF gel", "result": "no evidence of binding"}, {"measurement": "CHIEF complex formation with adHSP70", "setting": "[3]; IEF gel, listed as WT1", "result": "limited complex formation"}]}
{"molecule": "carbonic anhydrase", "values": [{"measurement": "CHIEF complex formation with adHSP70", "setting": "[3]; IEF gel", "result": "did not interact"}]}
{"molecule": "histone 2A", "values": [{"measurement": "CHIEF complex formation with adHSP70", "setting": "[3]; IEF gel", "result": "yielded an identical complex"}]}
{"molecule": "lysozyme", "values": [{"measurement": "CHIEF complex formation with adHSP70", "setting": "[3]; IEF gel", "result": "did bind"}, {"measurement": "CHIEF complex formation with M. tuberculosis HSP70", "setting": "[9]", "result": "complexed"}]}
{"molecule": "myoglobin", "values": [{"measurement": "CHIEF complex formation with adHSP70", "setting": "[3]; IEF gel", "result": "did not interact"}]}
{"molecule": "trypsinogen", "values": [{"measurement": "CHIEF complex formation with adHSP70", "setting": "[3]; IEF gel", "result": "did not interact"}]}
{"molecule": "Bovine myelin basic protein (protein) AAQKRPSQRSKYLASASTMDHARHGFLPRHRDTGILDSLGRFFGSDRGAPKRGSGKDGHHAARTTHYGSLPQKAQGHRPQDENPVVHFFKNIVTPRTPPPSQGKGRGLSLSRFSWGAEGQKPGFGYGGRASDYKSAHKGLKGHDAQGTLSKIFKLGGRDSRSGSPMARR", "values": [{"measurement": "focusing position (pI marker) of CHIEF complex with adHSP70", "setting": "[3]; IEF gel", "result": "~6.5"}, {"measurement": "CHIEF complex formation with adHSP70", "setting": "[3]; IEF gel", "result": "bound"}, {"measurement": "CHIEF complex formation with adHSP70", "setting": "[3]; IEF gel, listed as MBP", "result": "binding"}, {"measurement": "CHIEF complex formation with M. tuberculosis HSP70", "setting": "[9]", "result": "complexed"}]}
